Format in all cases: in vivo
In data set [1] the test system is Beet Armyworm (Spodoptera exigua, LAPHEG) ("BAW"). The data set is described as follows: Bioassays on BAW, 128-well diet tray assay. Particulars: 168 h, second instar larvae, 50 μg/cm^2 on artificial diet, 25° C., five to seven days, average of eight wells, read-out: BAW % Control (or Mortality) rating. In a few lines:
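One to five second-instar larvae were placed per well on artificial diet surface-treated with 50 μg/cm^2 compound from 90:10 acetone-water, dried before infestation. Trays were held at 25 °C, 14:10 light-dark, for five to seven days. Percent mortality was averaged over eight wells.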

For data set [2], the system named is Corn Earworm (Helicoverpa zea, HELIZE) ("CEW"). The experiment in a line: Bioassays on CEW, 128-well diet tray assay. Conditions: 168 h, second instar larvae, 50 μg/cm^2 on artificial diet, 25° C., five to seven days, average of eight wells, read-out: CEW % Control (or Mortality) rating. The procedure:
Certain molecules disclosed in this document were tested against BAW, CEW, and CL using procedures described in the following examples. In the reporting of the results, the “BAW, CEW, & CL Rating Table” was used (See Table Section).
Bioassays on CEW were conducted using a 128-well diet tray assay. one to five second instar CEW larvae were placed in each well (3 mL) of the diet tray that had been previously filled with 1 mL of artificial diet to which 50 μg/cm^2 of the test compound (dissolved in 50 μL of 90:10 acetone-water mixture) had been applied (to each of eight wells) and then allowed to dry. Trays were covered with a clear self-adhesive cover, and held at 25° C., 14:10 light-dark for five to seven days. Percent mortality was recorded for the larvae in each well; activity in the eight wells was then averaged. The results are indicated in the table entitled “Table ABC: Biological Results” (See Table Section). Bioassays on CL

Data set [3] deals with Green Peach Aphid (Myzus persicae, MYZUPE) ("GPA"). The experiment in a line: Bioassays on GPA, foliar spray of infested cabbage seedlings. Conditions: 72 h, 200 ppm spray on cabbage seedlings, graded after three days, Abbott corrected % control, read-out: GPA % Control (or Mortality) rating. Summed up:
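Cabbage seedlings (2-3 true leaves) infested with 20-50 wingless adult and nymph aphids one day before spraying to runoff at 200 ppm in aqueous 0.025% Tween 20 with 20% acetone/methanol. Live aphids counted after three days at ~25 °C; % control by Abbott's correction versus solvent-check plants.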

Data set [4] deals with Yellow Fever Mosquito (Aedes aegypti, AEDSAE) ("YFM"). The data set is described as follows: Bioassays on YFM, 96-well plate larval assay. Conditions: about 1 day-old larvae, from 4000 ppm DMSO master plate diluted, room temperature, scored after 3 days. Summed up:
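Compounds from 4000 ppm DMSO master plates, diluted in 90:10 water:acetone, dispensed into 96-well plates, six replicates. About 1-day-old larvae added in liver-powder water. Wells covered, held 3 days at room temperature, then scored for mortality.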

The subject of data set [5] is Cabbage Looper (Trichoplusia ni, TRIPNI) ("CL"). The experiment in a line: Bioassays on CL, 128-well diet tray assay. Particulars: 168 h, second instar larvae, 50 μg/cm^2 on artificial diet, 25° C., five to seven days, average of eight wells, read-out: CL % Control (or Mortality) rating. In a few lines:
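Second-instar larvae (one to five per well) on artificial diet surface-treated with 50 μg/cm^2 compound in 90:10 acetone-water, eight wells per treatment. Held at 25° C., 14:10 light-dark for five to seven days. Percent mortality scored per well and averaged over the eight wells.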

Structures are written as SMILES.

Turning to `Cc1nc(Cl)ccc1NC(=O)Nc1ccc(-c2ncn(-c3ccc(OC(F)(F)F)cc3)n2)cc1` [F36, 1-(6-Chloro-2-methylpyridin-3-yl)-3-(4-(1-(4-(trifluoromethoxy)phenyl)-1H-1,2,4-triazol-3-yl)phenyl)urea], the mortality at 50 µg/cm2 in data set [1] and in data set [2] was 50 to 100% each time. Moreover, the mortality at 200 ppm in data set [3] was 0 to 80%.

Take `COc1ccc(NC(=S)NCc2ccc(-c3ncn(-c4ccc(OC(F)(F)C(F)(F)F)cc4)n3)cc2)c(C)c1` [F111, 1-(4-methoxy-2-methylphenyl)-3-(4-(1-(4-(perfluoroethoxy)phenyl)-1H-1,2,4-triazol-3-yl)benzyl)thiourea]: the mortality at 50 µg/cm2 in data set [1] and in data set [2] was 50 to 100% throughout. The “YFM % Control (or Mortality) rating” value in data set [4] is reported as “A (80-100)”. Also, in data set [3], the mortality at 200 ppm was determined as 0%.

Regarding `CC(=O)N(C(=S)Nc1cccc(C)c1)c1ccc(-c2ncn(-c3ccc(OC(F)(F)F)cc3)n2)cc1` [F67, N-(m-tolylcarbamothioyl)-N-(4-(1-(4-(trifluoromethoxy)phenyl)-1H-1,2,4-triazol-3-yl)phenyl)acetamide], the mortality at 50 µg/cm2 in data set [1] is 0 to 50%; in data set [2], 0%. Further, the “YFM % Control (or Mortality) rating” value in data set [4] is “D (No activity noticed in this bioassay)”. In addition, the mortality at 200 ppm in data set [3] came out at 0%.

As for `CN(C)c1ccc(NC(=S)NCc2ccc(-c3ncn(-c4ccc(OC(F)(F)C(F)(F)F)cc4)n3)cc2)cc1` [F112, 1-(4-(Dimethylamino)phenyl)-3-(4-(1-(4-(perfluoroethoxy)phenyl)-1H-1,2,4-triazol-3-yl)benzyl)thiourea], the mortality at 50 µg/cm2 in data set [1] was 0 to 50%; in data set [2] it was 0%. Moreover, in data set [4], the “YFM % Control (or Mortality) rating” value is on record as “D (No activity noticed in this bioassay)”. In addition, the mortality at 200 ppm in data set [3] amounted to 0%.

Take `COc1ccc(NC(=S)NCc2ccc(-c3ncn(-c4ccc(OC(F)(F)C(F)(F)F)cc4)n3)cc2)cc1` [F110, 1-(4-methoxyphenyl)-3-(4-(1-(4-(perfluoroethoxy)phenyl)-1H-1,2,4-triazol-3-yl)benzyl)thiourea]: the results for the mortality at 50 µg/cm2 in data set [1] and in data set [2] were 50 to 100% and 0%, respectively. For the same compound, the “YFM % Control (or Mortality) rating” value in data set [4] is given as “D (No activity noticed in this bioassay)”. In addition, the mortality at 200 ppm in data set [3] is 0%.

Regarding `CC(C)c1ccccc1NC(=S)Nc1ccc(-c2ncn(-c3ccc(C(F)(F)F)cc3)n2)cc1` [F53, 1-(2-isopropylphenyl)-3-(4-(1-(4-(trifluoromethyl)phenyl)-1H-1,2,4-triazol-3-yl)phenyl)thiourea], the mortality at 50 µg/cm2 in data set [1] and in data set [2] was 50 to 100% each time. For the same compound, in data set [4], the “YFM % Control (or Mortality) rating” value is “A (80-100)”. Moreover, the mortality at 200 ppm in data set [3] fell in the range of 0 to 80%.

As to `Cc1ccc(C)n1-c1ccccc1NC(=S)Nc1ccc(-c2ncn(-c3ccc(OC(F)(F)F)cc3)n2)cc1` [F75, 1-(2-(2,5-Dimethyl-1H-pyrrol-1-yl)phenyl)-3-(4-(1-(4-(trifluoromethoxy)phenyl)-1H-1,2,4-triazol-3-yl)phenyl)thiourea], the mortality at 50 µg/cm2 in data set [1], in data set [5] and in data set [2] was 50 to 100% each time. Also, the “YFM % Control (or Mortality) rating” value in data set [4] is on record as “D (No activity noticed in this bioassay)”. In addition, in data set [3], the mortality at 200 ppm turned out to be 0%.

For `COc1ccc(NC(=O)Nc2ccc(-c3ncn(-c4ccc(OC(F)(F)F)cc4)n3)cc2)cn1` [F10, 1-(6-Methoxypyridin-3-yl)-3-(4-(1-(4-(trifluoromethoxy)phenyl)-1H-1,2,4-triazol-3-yl)phenyl)urea], the mortality at 50 µg/cm2 in data set [1] and in data set [2] was 50 to 100% throughout. In data set [3], the mortality at 200 ppm was in the range of 0 to 80%.

As for `CCOc1ccc(NC(=O)Nc2ccc(-c3ncn(-c4ccc(OC(F)(F)F)cc4)n3)cc2)cc1` [F2, 1-(4-ethoxyphenyl)-3-(4-(1-(4-(trifluoromethoxy)phenyl)-1H-1,2,4-triazol-3-yl)phenyl)urea], the mortality at 50 µg/cm2 in data set [1] and in data set [2] was 0% throughout. The mortality at 200 ppm in data set [3] was 0%.

Regarding `CCOc1ccc(NC(=O)Nc2ccc(-c3ncn(-c4ccc(OC(F)(F)F)cc4)n3)cc2)cn1` [F8, 1-(6-Ethoxypyridin-3-yl)-3-(4-(1-(4-(trifluoromethoxy)phenyl)-1H-1,2,4-triazol-3-yl)phenyl)urea], the mortality at 50 µg/cm2 in data set [1] and in data set [2] was 0% in each case. Further, in data set [3], the mortality at 200 ppm is 0%.

On to `CCOC(=O)c1ccc(NC(=O)Nc2ccc(-c3ncn(-c4ccc(OC(F)(F)F)cc4)n3)cc2)c(C)n1` [F41, Ethyl 6-methyl-5-(3-(4-(1-(4-(trifluoromethoxy)phenyl)-1H-1,2,4-triazol-3-yl)phenyl)ureido)picolinate], for which the mortality at 50 µg/cm2 in data set [1] and in data set [2] was 0% throughout. Also, the mortality at 200 ppm in data set [3] stood at 0%.

The record behind these values is US9445594B2, “Molecules having certain pesticidal utilities, intermediates, compositions, and processes, related thereto” (priority 2014, dated 2016).
